Reference: patent US10898481B2 (priority 2018, dated 2021)

Columns and labels:
[1] = target: hA2a/CHO (Homo sapiens (Human), UniProt P29274); assay: cAMP inhibition assay in hA2a/CHO cells, 10 μM adenosine; type: cell-based; settings: read-out: cAMP & FLIPR IC50 (nM) hA2a;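 note: compounds added to cells 30 min ahead of adenosine, then a further 30 min at 37 °C with adenosine before cAMP detection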
Protocol: (§1) hA2a/CHO, hA2b/CHO, hA3/CHO and mA2a/CHO (Genscript) were plated at 5×10^3 cells/well into 384-well polystyrene plates at the day of experiment. Compounds were pre-incubated with cells for 30 min at 37° C., 5% CO2. Then 10 μM adenosine was added to the cells and incubated for 30 min at 37° C., 5% CO2. Detection reagent (CISBIO) was added and the plates were incubated for 60 min at room temperature. The signal was captured by Envision.

[2] = target: mA2a/CHO (Mus musculus (Mouse), UniProt Q60613); assay: cAMP inhibition assay in mA2a/CHO cells, 10 μM adenosine; type: cell-based; settings: read-out: cAMP & FLIPR IC50 (nM) mA2a;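 note: compounds preincubated 30 min at 37 °C before the adenosine challenge, then 30 min further stimulation, readout after 60 min detection reagent incubation at room temperature in 384-well plates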
Protocol: as §1

[3] = target: hADORA1/CHO (hA1 expressing) cells (Homo sapiens (Human), UniProt P30542); assay: cell-based; settings: FLIPR inhibition, 10 μM adenosine, read-out: cAMP & FLIPR IC50 (nM) hA1
[4] = target: hA2b/CHO (Homo sapiens (Human), UniProt P29275); assay: cAMP inhibition assay in hA2b/CHO cells, 10 μM adenosine; type: cell-based; settings: read-out: cAMP & FLIPR IC50 (nM) hA2b;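 note: cells exposed to compound 30 min at 37 °C, then stimulated with adenosine a further 30 min, cAMP read after 60 min at room temperature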
hA2b/CHO, sequence (P29275 whole entry): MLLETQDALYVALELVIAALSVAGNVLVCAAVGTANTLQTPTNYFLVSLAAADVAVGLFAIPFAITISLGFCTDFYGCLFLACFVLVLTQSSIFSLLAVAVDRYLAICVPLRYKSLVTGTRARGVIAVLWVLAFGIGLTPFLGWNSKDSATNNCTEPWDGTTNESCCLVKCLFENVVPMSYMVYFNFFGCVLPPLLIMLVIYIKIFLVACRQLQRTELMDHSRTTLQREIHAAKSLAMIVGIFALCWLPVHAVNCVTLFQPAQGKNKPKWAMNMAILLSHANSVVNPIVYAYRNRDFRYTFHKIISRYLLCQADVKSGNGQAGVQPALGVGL
Protocol: as §1

mA2a/CHO, sequence (Q60613 whole entry): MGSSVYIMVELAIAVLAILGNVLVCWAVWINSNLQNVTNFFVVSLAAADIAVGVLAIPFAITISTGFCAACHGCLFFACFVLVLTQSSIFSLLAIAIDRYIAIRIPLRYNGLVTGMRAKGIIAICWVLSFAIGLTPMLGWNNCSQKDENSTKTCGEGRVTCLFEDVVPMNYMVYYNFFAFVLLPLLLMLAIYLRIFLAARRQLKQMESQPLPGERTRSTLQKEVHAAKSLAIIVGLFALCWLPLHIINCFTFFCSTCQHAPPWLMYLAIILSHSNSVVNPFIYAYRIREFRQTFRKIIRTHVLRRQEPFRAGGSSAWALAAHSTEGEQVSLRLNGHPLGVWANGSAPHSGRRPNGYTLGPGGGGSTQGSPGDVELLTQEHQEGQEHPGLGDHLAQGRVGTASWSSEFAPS
hADORA1/CHO (hA1 expressing) cells, sequence (P30542 whole entry): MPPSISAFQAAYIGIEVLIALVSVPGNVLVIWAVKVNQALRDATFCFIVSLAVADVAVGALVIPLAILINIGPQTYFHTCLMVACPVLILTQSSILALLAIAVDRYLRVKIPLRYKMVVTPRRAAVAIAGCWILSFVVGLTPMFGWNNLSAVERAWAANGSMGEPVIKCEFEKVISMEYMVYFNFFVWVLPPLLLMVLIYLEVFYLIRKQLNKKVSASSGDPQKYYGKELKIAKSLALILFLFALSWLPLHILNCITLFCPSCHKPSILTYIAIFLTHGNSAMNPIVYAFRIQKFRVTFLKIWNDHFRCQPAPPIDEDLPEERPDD
hA2a/CHO, sequence (P29274 whole entry): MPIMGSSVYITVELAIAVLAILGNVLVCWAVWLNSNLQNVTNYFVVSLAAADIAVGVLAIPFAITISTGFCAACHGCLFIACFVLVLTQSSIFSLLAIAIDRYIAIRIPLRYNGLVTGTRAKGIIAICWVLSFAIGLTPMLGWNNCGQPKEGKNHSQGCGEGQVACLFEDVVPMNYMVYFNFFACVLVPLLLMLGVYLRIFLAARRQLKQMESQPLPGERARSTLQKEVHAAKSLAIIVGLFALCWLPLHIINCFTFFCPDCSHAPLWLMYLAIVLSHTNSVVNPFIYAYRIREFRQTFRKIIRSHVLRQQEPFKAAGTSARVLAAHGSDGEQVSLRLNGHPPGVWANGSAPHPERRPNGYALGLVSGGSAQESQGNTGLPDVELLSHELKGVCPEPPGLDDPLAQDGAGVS

| SMILES | IC50 [1] [nM] | IC50 [2] [nM] | IC50 [3] [nM] | IC50 [4] [nM] |
| --- | --- | --- | --- | --- |
| Cc1cnc2ccc(-c3nc(C(=O)NC[C@@H]4CCCN4)c(N)nc3-c3ncco3)cn12 [Example 123, (S)-3-amino-6-(3-methylimidazo[1,2-a]pyridin-6-yl)-5-(oxazol-2-yl)-N-(pyrrolidin-2-ylmethyl)pyrazine-2-carboxamide] | 56 | 153 | 10000 | 1310 |
| CCc1cnn2ccc(-c3nc(C(=O)NC[C@H]4CCCN4C)c(N)nc3-c3ncco3)cc12 [Example 128, (R)-3-amino-6-(3-ethylpyrazolo[1,5-a]pyridin-5-yl)-N-((1-methylpyrrolidin-2-yl)methyl)-5-(oxazol-2-yl)pyrazine-2-carboxamide] | 63 | 410 | 10000 | ≥ 10000 |
| CCc1cnn2ccc(-c3nc(C(=O)NC[C@@H]4CCCN4C)c(N)nc3-c3ncco3)cc12 [Example 129, (S)-3-amino-6-(3-ethylpyrazolo[1,5-a]pyridin-5-yl)-N-((1-methylpyrrolidin-2-yl)methyl)-5-(oxazol-2-yl)pyrazine-2-carboxamide] | 140 | 944 | 10000 | ≥ 10000 |
| CN1CCC[C@H]1CNC(=O)c1nc(-c2ccc3ncn(C)c3c2)c(-n2nccn2)nc1N [Example 130, 3-amino-6-(1-methyl-1H-1,3-benzodiazol-6-yl)-N-[[(2S)-1-methylpyrrolidin-2-yl]methyl]-5-(2H-1,2,3-triazol-2-yl)pyrazine-2-carboxamide] | 295 | 2800 | 10000 | ≥ 10000 |
| CN1CCC[C@@H]1CNC(=O)c1nc(-c2ccc3ncn(C)c3c2)c(-n2nccn2)nc1N [Example 131, (R)-3-amino-6-(1-methyl-1H-benzo[d]imidazol-6-yl)-N-((1-methylpyrrolidin-2-yl)methyl)-5-(2H-1,2,3-triazol-2-yl)pyrazine-2-carboxamide] | 332 | 2700 | 10000 | ≥ 10000 |
| CCNC(=O)c1nc(-c2ccc3ncc(C)n3c2)c(-c2ncco2)nc1N [Example 132, 3-amino-N-ethyl-6-(3-methylimidazo [1,2-a]pyridin-6-yl)-5-(oxazol-2-yl) pyrazine-2-carboxamide] | 13 | 65 | 10000 | 258 |
| Cc1cnc2ccc(-c3nc(C(=O)NCCC#N)c(N)nc3-c3ncco3)cn12 [Example 142, 3-amino-N-(2-cyanoethyl)-6-(3-methyl-imidazo[1,2-a]pyridin-6-yl)-5-(oxazol-2-yl)pyrazine-2-carboxamide] | 10 | 73 | 10000 | 319 |
| Cc1cnc2ccc(-c3nc(C(=O)NCCC(=O)N(C)C)c(N)nc3-c3ncco3)cn12 [Example 143, 3-amino-N-(3-(dimethylamino)-3-oxopropyl)-6-(3-methylimidazo[1,2-a]pyridin-6-yl)-5-(oxazol-2-yl)pyrazine-2-carboxamide] | 1.7 | 12 | 180 | 162 |
| Cc1cnc2ccc(-c3nc(C(=O)N[C@@H]4CCN(C)C4)c(N)nc3-c3ccc(F)cc3)cn12 [Example 144, (R)-3-amino-5-(4-fluorophenyl)-6-(3-methylimidazo[1,2-a]pyridin-6-yl)-N-(1-methylpyrrolidin-3-yl)pyrazine-2-carboxamide] | 4.6 | 61 | 10000 | 1410 |
| Cc1cnc2ccc(-c3nc(C(=O)NC[C@@H](C)O)c(N)nc3-c3ncco3)cn12 [Example 145, (R)-3-amino-N-(2-hydroxypropyl)-6-(3-methylimidazo[1,2-a]pyridin-6-yl)-5-(oxazol-2-yl)pyrazine-2-carboxamide] | 32 | 205 | 10000 | 789 |
| Cc1cnc2ccc(-c3nc(C(=O)NC[C@H](C)O)c(N)nc3-c3ncco3)cn12 [Example 146, (S)-3-amino-N-(2-hydroxypropyl)-6-(3-methylimidazo[1,2-a]pyridin-6-yl)-5-(oxazol-2-yl)pyrazine-2-carboxamide] | 8.5 | 101 | 10000 | 256 |
| Cc1cnc2ccc(-c3nc(C(=O)NCCOC(F)(F)F)c(N)nc3-c3ncco3)cn12 [Example 148, 3-amino-6-(3-methylimidazo[1,2-a]pyridin-6-yl)-5-(oxazol-2-yl)-N-(2-(trifluoromethoxy)ethyl)pyrazine-2-carboxamide] | 0.5 | 1.1 | 69 | 99 |
| COCCCNC(=O)c1nc(-c2ccc3ncc(C)n3c2)c(-c2ncco2)nc1N [Example 149, 3-amino-N-(3-methoxypropyl)-6-[3-methylimidazo[1,2-a]pyridin-6-yl]-5-(1,3-oxazol-2-yl)pyrazine-2-carboxamide] | 1.5 | 7.8 | 1560 | 85 |
| Cc1cnc2ccc(-c3nc(C(=O)NCCS(C)(=O)=O)c(N)nc3-c3ccc(F)cc3)cn12 [Example 150, 3-amino-5-(4-fluorophenyl)-6-(3-methylimidazo[1,2-a]pyridin-6-yl)-N-(2-(methylsulfonyl)ethyl)pyrazine-2-carboxamide] | 3.4 | 6.5 | 26 | 108 |
| CO[C@H]1C[C@H](NC(=O)c2nc(-c3ccc4ncc(C)n4c3)c(-c3ncco3)nc2N)C1 [Example 151, 3-amino-N-((1r,3r)-3-methoxycyclobutyl)-6-(3-methylimidazo [1,2-a]pyridin-6-yl)-5-(oxazol-2-yl) pyrazine-2-carboxamide] | 0.8 | 12 | 10000 | 193 |
| CO[C@H]1C[C@@H](NC(=O)c2nc(-c3ccc4ncc(C)n4c3)c(-c3ncco3)nc2N)C1 [Example 152, 3-amino-N-((1s,3s)-3-methoxycyclobutyl)-6-(3-methylimidazo [1,2-a]pyridin-6-yl)-5-(oxazol-2-yl)pyrazine-2-carboxamide] | 5.1 | 43 | 10000 | 369 |
| Cc1cnc2ccc(-c3nc(C(=O)NCCN(C)C)c(N)nc3-c3ncco3)cn12 [Example 153, 3-amino-N-(2-(dimethylamino)ethyl)-6-(3-methylimidazo[1,2-a]pyridin-6-yl)-5-(oxazol-2-yl)pyrazine-2-carboxamide] | 19 | 120 | 10000 | 592 |
| Cc1cnc2ccc(-c3nc(C(=O)NCC4(N(C)C)CC4)c(N)nc3-c3ccc(F)cc3)cn12 [Example 154, 3-amino-N-[[1-(dimethylamino)cyclopropyl]methyl]-5-(4-fluorophenyl)-6-[3-methylimidazo[1,2-a]pyridin-6-yl]pyrazine-2-carboxamide] | 11 | 121 | 10000 | 1150 |
| Cc1cnc2ccc(-c3nc(C(=O)NCC4CC4)c(N)nc3-c3ncco3)cn12 [Example 155, 3-amino-N-(cyclopropylmethyl)-6-(3-methylimidazo[1,2-a]pyridin-6-yl)-5-(oxazol-2-yl)pyrazine-2-carboxamide] | 0.6 | 12 | 3650 | 188 |
| Cc1cnc2ccc(-c3nc(CNC(=O)[C@@H]4CCCN4C)c(N)nc3-c3ccc(F)cc3)cn12 [Example 156, (2S)—N-[[3-amino-5-(4-fluorophenyl)-6-[3-methylimidazo[1,2-a]pyridin-6-yl]pyrazin-2-yl]methyl]-1-methylpyrrolidine-2-carboxamide] | 4.4 | 41 | 83 | 1200 |
| Cc1cnc2ccc(-c3nc(C(=O)NCCn4cccn4)c(N)nc3-c3ncco3)cn12 [Example 158, N-(2-(1H-pyrazol-1-yl)ethyl)-3-amino-6-(3-methylimidazo[1,2-a]pyridin-6-yl)-5-(oxazol-2-yl)pyrazine-2-carboxamide] | 1.27 | 3.46 | 756 | 167 |
| COC[C@@H](C)NC(=O)c1nc(-c2ccc3ncc(C)n3c2)c(-c2ncco2)nc1N [Example 159, (R)-3-amino-N-(1-methoxypropan-2-yl)-6-(3-methylimidazo[1,2-a]pyridin-6-yl)-5-(oxazol-2-yl)pyrazine-2-carboxamide] | 5.31 | 13.2 | > 10000 | 1640 |
| Cc1cnc2ccc(-c3nc(C(=O)NC[C@@H]4CC(F)(F)CN4C)c(N)nc3-c3ncco3)cn12 [Example 161, (S)-3-amino-N-((4,4-difluoro-1-methylpyrrolidin-2-yl)methyl)-6-(3-methylimidazo[1,2-a]pyridin-6-yl)-5-(oxazol-2-yl)pyrazine-2-carboxamide] | 0.95 | 0.8 | 34 | 98 |
| Cc1cnc2ccc(-c3nc(C(=O)NC[C@H]4CC(F)(F)CN4C)c(N)nc3-c3ncco3)cn12 [Example 162, (R)-3-amino-N-((4,4-difluoro-1-methylpyrrolidin-2-yl)methyl)-6-(3-methylimidazo[1,2-a]pyridin-6-yl)-5-(oxazol-2-yl)pyrazine-2-carboxamide] | 0.71 | 8.12 | 794 | 147 |
| Cc1cnc2ccc(-c3nc(C(=O)NCc4cccc(N5CC6(CCN6C)C5)n4)c(N)nc3-c3ncco3)cn12 [Example 171, 3-amino-N-[(6-[1-methyl-1,6-diazaspiro[3.3]heptan-6-yl]pyridin-2-yl)methyl]-6-[3-methylimidazo[1,2-a]pyridin-6-yl]-5-(1,3-oxazol-2-yl)pyrazine-2-carboxamide] | 1 | 15 | 589 | 228 |
